The values that follow come from patent publication US20050054589A1, “Method for treating diseases using HSP90-inhibiting agents in combination with antibiotics” (Kosan Biosciences, Inc., priority 2003, published 2005).

For data set [1] the following is noted: clinical trials; twice-weekly regimen; cited from earlier work.
In data set [2] the test system is SKBr cells (human breast cancer cells). Kind of data set: Cell viability (MTS) drug combination assay, combination index, SKBr-3 cells. Type of data set: cell-based. Conditions: constant ratio of IC50s, CI<1 synergism. How it is done: (§1) Human colon adenocarcinoma cell line, DLD-1, and human breast adenocarcinoma cell line, SKBr-3, were obtained from American Type Culture Collection (manassas, VA). DLD-1 cells were maintained in RPMI 1640 medium supplemented with 10% fetal bovine serum, and SKBr-3 cells were cultured in McCoy's 5a medium supplemented with 10% fetal bovine serum. 17-DMAG and 17-AAG were obtained using published procedures. Other cytotoxic agents were purchased commercially from suppliers such as Sigma Chemical Co. (St. Louis, Mo.) and Sequoia Research Products (Oxford, UK).
(§2) Cells were seeded in duplicate in 96-well microtiter plates at a density of 5,000 cells per well and allowed to attach overnight. […] Cell viability was determined using the MTS assay (Promega). For the drug combination assay, cells were seeded in duplicate in 96-well plates (5,000 cells/well). […] Cell viability was determined by the MTS assay.
(§3) Synergism, additivity or antagonism was determined by median effect analysis using the combination index (CI) calculated using Calcusyn (Biosoft, Cambridge, UK). […] The quantities [Dx]1 and [Dx]2 represent the concentrations of the first and second drug, respectively, that when used alone provide a response of x % in the assay. […] The “enhancing” effect of two drugs can also be determined.

For data set [3], the system named is DLD-1 cells (human colorectal cancer cells). Particulars: constant ratio of IC50s, CI<1 synergism, CI=1 additivity, CI>1 antagonism. How it is done:
as §1, §2, §3

The mark [4] stands for this setting: 17-AAG 24 h before antibiotic, then 48 h.
Where [5] appears, read: antibiotic alone 24 h, then 17-AAG for 48 h.

As for `C=CCNC1=C2C[C@@H](C)C[C@H](OC)[C@H](O)[C@@H](C)/C=C(\C)[C@H](OC(N)=O)[C@@H](OC)/C=C\C=C(/C)C(=O)NC(=CC1=O)C2=O` [17-AAG, 17-(allylamino)-17-desmethoxygeldanamycin], in data set [1], the MTD result is on record as “about 220 mg/m2”.

With `COc1cccc2c1C(=O)c1c(O)c3c(c(O)c1C2=O)C[C@@](O)(C(=O)CO)C[C@@H]3O[C@H]1C[C@H](N)[C@H](O)[C@H](C)O1` [Doxorubicin, doxorubicin], the “CI value, combination with 17-AAG, 17-AAG Pre-Administration” value is listed as 0.81 ± 0.05 in data set [2] (setting [4]) and 0.58 ± 0.15 in data set [3] (setting [4]). Also, the results for the “CI value, combination with 17-AAG, 17-AAG Post-Administration” value in data set [2] (setting [5]) and in data set [3] (setting [5]) were 0.45 ± 0.12 and 0.82 ± 0.09, respectively.
